Data reported in paper PMC5011342, “A high throughput drug screening assay to identify compounds that promote oligodendrocyte differentiation using acutely dissociated and purified oligodendrocyte precursor cells” (BMC Research Notes, 2016).
Where a name gives a salt, the structure may show the parent alone. Read-outs that look alike come from different tables or passages of the source.

Tests used:
[1] = tested on: acutely dissociated and purified rat OPCs; experiment: Acute OL differentiation assay (MBP expression/cell, immunofluorescent image quantification); type: cell-based; details: sheet "All OLga data"; for activation at 2 µM / activation at 10 µM / activation at 0.08 µM / activation at 0.4 µM: Rattus norvegicus; for activation at 0.08 µM: test compound at 0.08 uM, read-out: 0.08 uM (% Quet)
How it was run: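 Oligodendrocyte precursor cells were enriched from P6-P7 Sprague–Dawley rat brains by immunopanning (RAN-2 and GalC depletion, O4 selection), plated at 5000 cells/well in serum-free, mitogen-free differentiation media on PDL/laminin 96-well view plates, centrifuged at 200×g, and pre-incubated 1–2 h before test compounds were added in quadruplicate. On DIV4, cells were fixed, stained for MBP and DAPI, imaged automatically, and MBP expression per cell was quantified.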

expanded OPCs = experiment: cells; details: for viability at 0.1 µM / viability at 1 µM / viability at 10 µM: Rattus norvegicus, 72 h
How it was run: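 Expanded OPCs seeded at 10,000 cells/well in differentiation media, then exposed to NCC library compounds at 10, 1 and 0.1 µM (quadruplicate, 0.1% DMSO) for three days. Viability read as alamarBlue fluorescence (560/590 nm) after 4 h at 37 °C; tunicamycin 5 ng/ml served as toxicity control.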

[2] = 2 uM test compound, relative to quetiapine, read-out: OL differentiation, 2 uM (% Quet)
[3] = 10 uM test compound, relative to quetiapine, read-out: OL differentiation, 10 uM (% Quet)
[4] = read-out: 0.1 µM (% DMSO), alamarBlue viability of expanded OPCs, compound at 0.1 µM, sheet All Tox data
[5] = read-out: 1 µM (% DMSO), alamarBlue viability of expanded OPCs, compound at 1 µM, sheet All Tox data
[6] = read-out: 10 µM (% DMSO), alamarBlue viability of expanded OPCs, compound at 10 µM, sheet All Tox data
[7] = MBP expression relative to quetiapine, NCC library screen
[8] = alamarBlue viability of expanded OPCs, compound at 0.1 µM, relative to DMSO control
[9] = alamarBlue viability of expanded OPCs, compound at 1 µM, relative to DMSO control
[10] = alamarBlue viability of expanded OPCs, compound at 10 µM, relative to DMSO control
[11] = test compound at 0.4 uM, MBP expression relative to quetiapine, NCC library screen, read-out: 0.4 uM (% Quet)
[12] = test compound at 2 uM, MBP expression relative to quetiapine, NCC library screen, read-out: 2 uM (% Quet)
[13] = 0.4 uM test compound, relative to quetiapine, read-out: OL differentiation, 0.4 uM (% Quet)
[14] = test compound at 10 uM, MBP expression relative to quetiapine, NCC library screen, read-out: 10 uM (% Quet)
[15] = test compound at 2 uM, NCC library screen, relative to quetiapine, read-out: 2 uM (% Quet)
[16] = test compound at 10 uM, NCC library screen, relative to quetiapine, read-out: 10 uM (% Quet)
[17] = read-out: 0.1 µM (% DMSO), alamarBlue viability, NCC library compound at 0.1 µM, sheet "All Tox data"
[18] = read-out: 1 µM (% DMSO), alamarBlue viability, NCC library compound at 1 µM, sheet "All Tox data"
[19] = read-out: 10 µM (% DMSO), alamarBlue viability, NCC library compound at 10 µM, sheet "All Tox data"

Structure (SMILES) | activation at 2 µM [1, 2] [%] | activation at 10 µM [1, 3] [%] | viability at 0.1 µM (expanded OPCs; [4]) [%] | viability at 1 µM (expanded OPCs; [5]) [%] | viability at 10 µM (expanded OPCs; [6]) [%] | 0.1 µM (% DMSO) (expanded OPCs; [8]) | 1 µM (% DMSO) (expanded OPCs; [9]) | 10 µM (% DMSO) (expanded OPCs; [10]) | also measured
Oc1ccc(C2CNCCc3c2cc(O)c(O)c3Cl)cc1 (stereo not drawn) [Fenoldopam] | -32.3 | -79.8 | 106 | 97.4 | 75.9 |  |  |  | 
C[N+]1(CCC(C(N)=O)(c2ccccc2)c2ccccc2)CCCCC1 [Fenpiverinium] | -23.8 | -19.5 | 93.3 | 96.9 | 101 |  |  |  | 
CC(C)(C)NC(=O)[C@H]1CC[C@H]2[C@@H]3CC[C@H]4NC(=O)C=C[C@]4(C)[C@H]3CC[C@]12C [Finasteride] | -14.4 | -17.4 | 83.3 | 85.8 | 85.3 |  |  |  | 
O=C(NCC1CCCCN1)c1cc(OCC(F)(F)F)ccc1OCC(F)(F)F (stereo not drawn) [Flecainide] |  |  |  |  |  | 64.1 | 9.0 | 7.7 | activation at 0.08 µM [1, 7]: 2.3%
O=c1[nH]c(=O)n([C@H]2C[C@H](O)[C@@H](CO)O2)cc1F [Floxuridine] |  |  |  |  |  | 65.0 | 64.9 | 67.9 | activation at 0.4 µM [1, 11]: -13.5%; activation at 2 µM [1, 12]: -23.6%
COC(=O)Nc1nc2cc(C(=O)c3ccc(F)cc3)ccc2[nH]1 [Flubendazole] | -188 |  | 74.4 | 69.3 | 43.7 |  |  |  | activation at 0.4 µM [1, 13]: -62.9%
OC(Cn1cncn1)(Cn1cncn1)c1ccc(F)cc1F [Fluconazole] |  |  |  |  |  | 89.6 | 88.1 | 92.1 | activation at 2 µM [1, 12]: 0.9%; activation at 10 µM [1, 14]: -44.2%
Nc1[nH]c(=O)ncc1F [Flucytosine] | -1.1 | -1 | 98.2 | 90.7 | 99.4 |  |  |  | 
Nc1nc(F)nc2c1ncn2[C@@H]1O[C@H](CO)[C@@H](O)[C@@H]1O [Fludarabine] |  |  |  |  |  | 91.2 | 88.7 | 77.9 | activation at 2 µM [1, 12]: 18.7%; activation at 10 µM [1, 14]: -12.6%
CCOC(=O)c1ncn2c1CN(C)C(=O)c1cc(F)ccc1-2 [Flumazenil] | -7.2 | -31.7 | 84.8 | 88.2 | 95.5 |  |  |  | 
CC1(C)O[C@@H]2C[C@H]3[C@@H]4C[C@H](F)C5=CC(=O)C=C[C@]5(C)[C@@]4(F)[C@@H](O)C[C@]3(C)[C@]2(C(=O)CO)O1 [Fluocinolone Acetonide] |  |  |  |  |  |  |  |  | activation at 2 µM [1, 15]: 12.9%; activation at 10 µM [1, 16]: 9.2%; viability at 0.1 µM (expanded OPCs; [17]): 116%; viability at 1 µM (expanded OPCs; [18]): 118%; viability at 10 µM (expanded OPCs; [19]): 111%
CC(=O)OCC(=O)[C@@]12OC(C)(C)O[C@@H]1C[C@H]1[C@@H]3C[C@H](F)C4=CC(=O)C=C[C@]4(C)[C@@]3(F)[C@@H](O)C[C@@]12C [Fluocinonide] |  |  |  |  |  | 108.3 | 102.9 | 80.4 | activation at 2 µM [1, 12]: 12.4%; activation at 10 µM [1, 14]: -24.4%
CC(=O)[C@@]1(O)CC[C@H]2[C@@H]3C[C@H](C)C4=CC(=O)C=C[C@]4(C)[C@@]3(F)[C@@H](O)C[C@@]21C [Fluorometholone] |  |  |  |  |  | 112.5 | 98.3 | 86.2 | activation at 2 µM [1, 12]: 9.3%; activation at 10 µM [1, 14]: -24.3%
CNCCC(Oc1ccc(C(F)(F)F)cc1)c1ccccc1 (stereo not drawn) [Fluoxetine hydrochloride] |  |  |  |  |  | 77.4 | 42.2 | 7.9 | activation at 0.08 µM [1, 7]: 13%; activation at 0.4 µM [1, 11]: 10.7%
CN1CCN(C2=Nc3cc(F)ccc3Cc3ccccc32)CC1 [Fluperlapine] |  |  |  |  |  |  |  |  | activation at 0.4 µM ([1]; test compound at 0.4 uM, NCC library screen, relative to quetiapine, read-out: 0.4 uM (% Quet)): -10.3%; activation at 2 µM [1, 15]: -16.2%; viability at 0.1 µM (expanded OPCs; [17]): 78.1%; viability at 1 µM (expanded OPCs; [18]): 64.8%; viability at 10 µM (expanded OPCs; [19]): 32.2%
CC(C(=O)O)c1ccc(-c2ccccc2)c(F)c1 (stereo not drawn) [Flurbiprofen] | -3.6 | 24.6 | 95.9 | 103 | 91.2 |  |  |  | activation at 2 µM [1, 15]: 1.8%; activation at 10 µM [1, 16]: -6.1%; viability at 0.1 µM (expanded OPCs; [17]): 91.1%; viability at 1 µM (expanded OPCs; [18]): 88.1%; viability at 10 µM (expanded OPCs; [19]): 89.4%
CC(C)C(=O)Nc1ccc([N+](=O)[O-])c(C(F)(F)F)c1 [Flutamide] |  |  |  |  |  | 88.5 | 91.4 | 103.8 | activation at 2 µM [1, 15]: 2.7%; activation at 10 µM [1, 16]: -38.5%
C[C@@H]1C[C@H]2[C@@H]3C[C@H](F)C4=CC(=O)C=C[C@]4(C)[C@@]3(F)[C@@H](O)C[C@]2(C)[C@@]1(O)C(=O)SCF [Fluticasone] | 14.2 | -38.8 | 103 | 106 | 112 |  |  |  | 
CC(C)n1c(/C=C/C(O)CC(O)CC(=O)O)c(-c2ccc(F)cc2)c2ccccc21 (stereo not drawn) [Fluvastatin] |  |  |  |  |  | 96.9 | 53.3 | 9.3 | activation at 0.08 µM [1, 7]: -66.1%; activation at 0.4 µM [1, 11]: -73.4%
COCCCC/C(=N\OCCN)c1ccc(C(F)(F)F)cc1 [Fluvoxamine] | 23.1 |  | 79.1 | 67.7 | 40 |  |  |  | activation at 0.4 µM [1, 13]: 3.3%
Nc1nc2ncc(CNc3ccc(C(=O)N[C@@H](CCC(=O)O)C(=O)O)cc3)nc2c(=O)[nH]1 [Folic acid] |  |  |  |  |  | 110.4 | 104.7 | 104.5 | activation at 2 µM [1, 15]: -16.1%; activation at 10 µM [1, 16]: -12.9%
NS(=O)(=O)c1cc(C(=O)O)c(NCc2ccco2)cc1Cl [Furosemide] |  |  |  |  |  | 87.5 | 91.0 | 97.3 | activation at 2 µM [1, 15]: 6%; activation at 10 µM [1, 16]: -6%
COC(=O)N1CCN(C(=O)Cc2ccc(Cl)c(Cl)c2)C(CN2CCCC2)C1 (stereo not drawn) [GR 89696] |  |  |  |  |  |  |  |  | 2 uM (% Quet) ([1]; test compound at 2 uM, NCC library screen, relative to quetiapine): 34.9 % Quet; 10 uM (% Quet) ([1]; test compound at 10 uM, NCC library screen, relative to quetiapine): 63.5 % Quet; 0.1 µM (% DMSO) (expanded OPCs; alamarBlue viability, NCC library compound at 0.1 µM, sheet "All Tox data"): 94.6 % DMSO; 1 µM (% DMSO) (expanded OPCs; alamarBlue viability, NCC library compound at 1 µM, sheet "All Tox data"): 83.7 % DMSO; 10 µM (% DMSO) (expanded OPCs; alamarBlue viability, NCC library compound at 10 µM, sheet "All Tox data"): 70.7 % DMSO
CCOC(=O)c1ccc(OC(=O)CCCCCNC(=N)N)cc1 [Gabexate] | 12.6 | 7.2 | 105 | 109 | 123 |  |  |  | 
COc1ccc2c3c1O[C@H]1C[C@@H](O)C=C[C@@]31CCN(C)C2 [Galantamine] | 14.9 | 16.4 | 86.2 | 81.7 | 81.5 |  |  |  | 
Nc1nc(O)c2ncn(COC(CO)CO)c2n1 [Ganciclovir] |  |  |  |  |  | 103.0 | 100.7 | 106.5 | activation at 2 µM [1, 12]: 3.8%; activation at 10 µM [1, 14]: -9.7%
COc1c(N2CCNC(C)C2)c(F)cc2c(=O)c(C(=O)O)cn(C3CC3)c12 (stereo not drawn) [Gatifloxacin] |  |  |  |  |  | 99.4 | 98.0 | 96.4 | activation at 2 µM [1, 12]: 34.6%; activation at 10 µM [1, 14]: 24.6%
Cc1ccc(C)c(OCCCC(C)(C)C(=O)O)c1 [Gemfibrozil] |  |  |  |  |  | 90.1 | 88.1 | 86.3 | activation at 2 µM [1, 15]: 0.66%; activation at 10 µM [1, 16]: 16.1%
